Columns and labels:
[1] = system: Glo-Response ARE-luc2P HEK293 cell line; test: ARE luciferase reporter cell-based assay; conditions: Homo sapiens, HEK293, 24 h, average of results obtained;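 also: luciferase signal tracks Nrf2 activation of the ARE once compounds disrupt KEAP1-Nrf2 binding, read with One-Glo reagent, DMSO serving as low control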
[2] = molecular target: Kelch domain of human KEAP1 (321-624 aa) (Homo sapiens (Human), UniProt Q14145); test: KEAP1 KELCH ThermoFluor binding assay; conditions: KEAP Kelch […], 1,8-ANS, pH 7.0, average of results obtained, read-out: Tf Kd;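 also: Ligand-induced melting temperature shift of E. coli-expressed KEAP1 Kelch protein, Kd estimated from concentration-response curves of ΔTm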
Kelch domain of human KEAP1 (321-624 aa), sequence (Q14145 321-624): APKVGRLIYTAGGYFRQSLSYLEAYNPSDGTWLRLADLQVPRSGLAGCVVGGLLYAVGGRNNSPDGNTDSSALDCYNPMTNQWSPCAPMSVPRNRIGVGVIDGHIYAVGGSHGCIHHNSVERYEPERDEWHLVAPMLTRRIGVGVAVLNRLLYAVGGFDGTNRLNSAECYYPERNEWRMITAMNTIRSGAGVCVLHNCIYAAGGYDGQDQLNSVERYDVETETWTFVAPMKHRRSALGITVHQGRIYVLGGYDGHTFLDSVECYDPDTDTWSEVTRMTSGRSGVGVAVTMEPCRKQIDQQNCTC

| SMILES | EC50 [1] [µM] | Kd [2] [µM] |
| --- | --- | --- |
| CCn1nnc2c(C)c(C(CC(=O)O)c3ccc(C)c(CN4CC5(COC5)Oc5ncccc5S4(=O)=O)c3)ccc21 (stereo not shown) [Example 252, 3-(3-((1′,1′-Dioxidospiro[oxetane-3,4′-pyrido[2,3-b][1,4,5]oxathiazepin]-2′(3′H)-yl)methyl)-4-methylphenyl)-3-(1-ethyl-4-methyl-1H-benzo[d][1,2,3]triazol-5-yl)propanoic Acid] | 0.021 | < 0.001 |
| Cc1ccc([C@@H](CC(=O)O)c2ccc3c(nnn3CC3CC3)c2C)cc1CN1CC2(COC2)Oc2ncccc2S1(=O)=O (single isomer, unassigned) [Example 70, (*R)-3-(1-(Cyclopropylmethyl)-4-methyl-1H-benzo[d][1,2,3]triazol-5-yl)-3-(3-((1′,1′-dioxidospiro[oxetane-3,4′-pyrido[2,3-b][1,4,5]oxathiazepin-2′(3′H)-yl)methyl)-4-methylphenyl)propanoic Acid] | 0.18 | 0.0019 |
| Cc1ccc([C@H](CC(=O)O)c2ccn3c(C(F)F)nnc3c2C)cc1CN1CC2(COC2)Oc2ncccc2S1(=O)=O (single isomer, unassigned) [Example 470, (*S)-3-(3-(Difluoromethyl)-8-methyl-[1,2,4]triazolo[4,3-a]pyridin-7-yl)-3-(3-((1′,1′-dioxidospiro[oxetane-3,4′-pyrido[2,3-b][1,4,5]oxathiazepin]-2′(3′H)-yl)methyl)-4-methylphenyl)propanoic Acid] | 0.473 | < 0.001 |
| Cc1ccc([C@H](CC(=O)O)c2ccc3c(nnn3CC3CC3)c2C)cc1CN1C[C@H]2CCCCN2c2ncccc2S1(=O)=O (single isomer, unassigned) [Example 236, (*S)-3-(1-(Cyclopropylmethyl)-4-methyl-1H-benzo[d][1,2,3]triazol-5-yl)-3-(3-(((*R)-5,5-dioxido-7,7a,8,9,10,11-hexahydro-6H-dipyrido[2,1-d:2′,3′-f][1,2,5]thiadiazepin-6-yl)methyl)-4-methylphenyl)propanoic Acid] | 0.0068 | < 0.001 |
| Cc1ccc(C(CC(=O)O)c2ccn3c(C)nnc3c2)cc1CN1CC(C)(C)Oc2ncccc2S1(=O)=O (racemic) [Example 160, (R/S)-3-(3-((4,4-Dimethyl-1,1-dioxido-3,4-dihydro-2H-pyrido[2,3-b][1,4,5]oxathiazepin-2-yl)methyl)-4-methylphenyl)-3-(3-methyl-[1,2,4]triazolo[4,3-a]pyridin-7-yl)propanoic Acid] | 19 | < 0.001 |
| Cc1cnc2c(c1)S(=O)(=O)N(Cc1cc([C@H](c3ccn4c(C5CC5)nnc4c3C)C(C)(C)C(=O)O)ccc1C)CC1(CC1)O2 (single isomer, unassigned) [Example 393, (*R)-3-(3-Cyclopropyl-8-methyl-[1,2,4]triazolo[4,3-a]pyridin-7-yl)-2,2-dimethyl-3-(4-methyl-3-((8′-methyl-1′,1′-dioxidospiro[cyclopropane-1,4′-pyrido[2,3-b][1,4,5]oxathiazepin]-2′(3′H)-yl)methyl)phenyl)propanoic Acid] | 4.8 | 2.1 |
| Cc1ccc([C@H](CC(=O)O)c2cc(OC(F)F)c3c(c2)nnn3C)cc1CN1C[C@H]2CCCCN2c2ncccc2S1(=O)=O (single isomer, unassigned) [Example 2, (*S)-3-(7-(Difluoromethoxy)-1-methyl-1H-benzo[d][1,2,3]triazol-5-yl)-3-(3-(((*R)-5,5-dioxido-7,7a,8,9,10,11-hexahydro-6H-dipyrido[2,1-d:2′,3′-f][1,2,5]thiadiazepin-6-yl)methyl)-4-methylphenyl)propanoic Acid] | 0.18 | 0.000162 |
| CC[C@@H]1CN(Cc2cc([C@@H](CC(=O)O)c3ccn4c(C(F)F)nnc4c3C)ccc2C)S(=O)(=O)c2cccnc2O1 (single isomer, unassigned) [Example 465, (*R)-3-(3-(Difluoromethyl)-8-methyl-[1,2,4]triazolo[4,3-a]pyridin-7-yl)-3-(3-(((R)-4-ethyl-1,1-dioxido-3,4-dihydro-2H-pyrido[2,3-b][1,4,5]oxathiazepin-2-yl)methyl)-4-methylphenyl)propanoic Acid] | 0.154 | < 0.001 |
